Where two headings read alike, the source gives them in different places.
Key:
A549 = test: 72-h MTT cytotoxicity assay, A549; format: cell-based, human
Description: Selected compounds from the above examples were subjected to a standard cellular proliferation assay using a range of different human tumour cell lines. Standard 72-h MTT (thiazolyl blue; 3-{4,5-dimethylthiazol-2-yl}-2,5-diphenyltetrazolium bromide) assays were performed (Haselsberger, K.; Peterson, D. C.; Thomas, D. G.; Darling, J. L. Anti Cancer Drugs 1996, 7, 331-8; Loveland, B. E.; Johns, T. G.; Mackay, I. R.; Vaillant, F.; Wang, Z. X.; Hertzog, P. J. Biochemistry International 1992, 27, 501-10). Human tumour cell lines were obtained from the ATCC (American Type Culture Collection, 10801 University Boulevard, Manessas, Va. 20110-2209, USA).

CDK2/cyclin E = target: T1, CDK2/cyclin E (Homo sapiens, UniProt P24941); test: CDK2/cyclin E kinase assay (GST-Rb phosphorylation); format: biochemical; conditions: Table 2, further results for CDK2/cyclin E inhibition; read-out: CDK2/cyclin E;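 further: enzyme source: His-tagged CDK2/cyclin E co-expressed in Sf9 insect cells via baculovirus, then purified by metal-chelate chromatography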
T1 construct: His; made in house; host or cells: Sf9 insect cells (baculovirus)

[1] = Homo sapiens, Table 4, additional data for cytotoxicity assay using the A549 cell line, read-out: A549
[2] = Table 4, additional data for cytotoxicity assay using the A549 cell line, read-out: A549

Row | SMILES | IC50 (A549; [1]) [nM] | other results
1 | Cc1nc(C)c(-c2ccnc(Nc3cccc(N)c3)n2)s1 [Compound 47, N-{4-(2,4-Dimethyl-thiazol-5-yl)-pyrimidin-2-yl}-benzene-1,3-diamine] | 1800 ± 1400 | –
2 | Cc1nc(-c2ccccc2)sc1-c1ccnc(Nc2ccc(O)cc2)n1 [Compound 60, 4-{4-(4-Methyl-2-phenyl-thiazol-5-yl)-pyrimidin-2-ylamino}-phenol] | 2100 ± 300 | IC50 (CDK2/cyclin E): 4000 nM
3 | Cc1nc(C)c(-c2ccnc(Nc3ccc(F)cc3F)n2)s1 [Compound 22, (2,4-Difluoro-phenyl)-{4-(2,4-dimethyl-thiazol-5-yl)-pyrimidin-2-yl}-amine] | 20000 ± 1000 | IC50 (CDK2/cyclin E): 20 nM
4 | CNc1nc(C)c(-c2ccnc(Nc3ccc(I)cc3)n2)s1 [Compound 72, (4-Iodo-phenyl)-{4-(4-methyl-2-methylamino-thiazol-5-yl)-pyrimidin-2-yl}-amine] | 800 ± 500 | IC50 (CDK2/cyclin E): 900 nM
5 | Cc1nc(C)c(-c2ccnc(Nc3ccc(O)cc3)n2)s1 [Compound 41, 4-{4-(2,4-Dimethyl-thiazol-5-yl)-pyrimidin-2-ylamino}-phenol] | 20 | –
6 | COc1ccc(Nc2nccc(-c3sc(C)nc3C)n2)cc1 [Compound 39, {4-(2,4-Dimethyl-thiazol-5-yl)-pyrimidin-2-yl}-(4-methoxy-phenyl)-amine] | 300 | IC50 (CDK2/cyclin E): 220 ± 70 nM
7 | Cc1nc(C)c(-c2ccnc(Nc3cc(F)cc(F)c3)n2)s1 [Compound 23, (3,5-Difluoro-phenyl)-{4-(2,4-dimethyl-thiazol-5-yl)-pyrimidin-2-yl}-amine] | – | IC50 (CDK2/cyclin E): 1700 nM
8 | CNc1nc(C)c(-c2ccnc(Nc3ccc(O)cc3)n2)s1 [Compound 63, 4-{4-(4-Methyl-2-methylamino-thiazol-5-yl)-pyrimidin-2-ylamino}-phenol] | – | IC50 (A549; Homo sapiens, A549, read-out: A549): 800 ± 200 nM
9 | Cc1nc(C)c(-c2cc(-c3ccc(O)cc3)nc(Nc3ccc(F)cc3)n2)s1 [Compound 70, 4-{6-(2,4-Dimethyl-thiazol-5-yl)-2-(4-fluoro-phenylamino)-pyrimidin-4-yl}-phenol] | 3000 ± 1000 | –
10 | Cc1nc(C)c(-c2ccnc(Nc3cc(Cl)cc(Cl)c3)n2)s1 [Compound 24, (3,5-Dichloro-phenyl)-{4-(2,4-dimethyl-thiazol-5-yl)-pyrimidin-2-yl}-amine] | 5000 | –
11 | Cc1nc(N)sc1-c1ccnc(Nc2ccc(O)cc2)n1 [Compound 114, 4-{4-(2-Amino-4-methyl-thiazol-5-yl)-pyrimidin-2-ylamino}-phenol] | – | IC50 (CDK2/cyclin E): 1400 nM
12 | Cc1nc(C)c(-c2ccnc(Nc3ccccc3I)n2)s1 [Compound 32, {4-(2,4-Dimethyl-thiazol-5-yl)-pyrimidin-2-yl}-(2-iodo-phenyl)-amine] | 23000 | –
13 | COC(=O)c1cc(Nc2nccc(-c3sc(C)nc3C)n2)ccc1Cl [Compound 99, 2-Chloro-5-{4-(2,4-dimethyl-thiazol-5-yl)-pyrimidin-2-ylamino}-benzoic acid methyl ester] | 3700 ± 2700 | –
14 | CCN(CC)CCOCc1cccc(Nc2nccc(-c3sc(C)nc3C)n2)c1 [Compound 118, {3-(2-Diethylamino-ethoxymethyl)-phenyl}-{4-(2,4-dimethyl-thiazol-5-yl)-pyrimidin-2-yl}-amine] | – | IC50 (CDK2/cyclin E): 700 nM
15 | Cc1nc(C)c(-c2cc(-c3ccccc3)nc(Nc3cccc([N+](=O)[O-])c3)n2)s1 [Compound 57, {4-(2,4-Dimethyl-thiazol-7-yl)-6-phenyl-pyrimidin-2-yl}-(3-nitro-phenyl)-amine] | – | IC50 (A549; [2]): 5200 ± 400 nM
16 | Cc1nc(C)c(-c2ccnc(Nc3cccc(F)c3)n2)s1 [Compound 35, {4-(2,4-Dimethyl-thiazol-5-yl)-pyrimidin-2-yl}-(3-fluoro-phenyl)-amine] | 4200 | –
17 | O=[N+]([O-])c1cccc(Nc2nccc(-c3cc(Cl)sc3Cl)n2)c1 [Compound 9, {4-(2,5-Dichloro-thiophen-3-yl)-pyrimidin-2-yl}-(3-nitro-phenyl)-amine] | – | IC50 (CDK2/cyclin E): 4700 nM
18 | Cc1nc(C)c(-c2ccnc(Nc3ccc(Cl)cc3Cl)n2)s1 [Compound 25, (2,4-Dichloro-phenyl)-{4-(2,4-dimethyl-thiazol-5-yl)-pyrimidin-2-yl}-amine] | 1500 | –
19 | Clc1cccc(Nc2nccc(-c3cc(Cl)sc3Cl)n2)c1 [Compound 4, (3-Chloro-phenyl)-{4-(2,5-dichloro-thiophen-3-yl)-pyrimidin-2-yl}-amine] | 16000 ± 11000 | –
20 | Cc1nc(C)c(-c2ccnc(Nc3cccc(Cl)c3)n2)s1 [Compound 7, (3-Chloro-phenyl)-{4-(2,4-dimethyl-thiazol-5-yl)-pyrimidin-2-yl}-amine] | 2800 | –
21 | Clc1cc(-c2ccnc(Nc3ccccc3Cl)n2)c(Cl)s1 [Compound 2, (2-Chloro-phenyl)-{4-(2,5-dichloro-thiophen-3-yl)-pyrimidin-2-yl}-amine] | 41000 ± 8000 | –

Row | SMILES | IC50 (A549; [1]) [nM] | other results
22 | COC(=O)c1ccc(Nc2nccc(-c3sc(C)nc3C)n2)cc1Cl [Compound 101, 2-Chloro-4-{4-(2,4-dimethyl-thiazol-5-yl)-pyrimidin-2-ylamino}-benzoic acid methyl ester] | 900 ± 200 | –
23 | Cc1nc(C)c(-c2ccnc(Nc3ccc(F)c(F)c3)n2)s1 [Compound 36, (3,4-Difluoro-phenyl)-{4-(2,4-dimethyl-thiazol-5-yl)-pyrimidin-2-yl}-amine] | – | IC50 (CDK2/cyclin E): 500 ± 200 nM
24 | CNc1nc(C)c(-c2ccnc(Nc3cccc(Cl)c3)n2)s1 [Compound 108, (3-Chloro-phenyl)-{4-(4-methyl-2-methylamino-thiazol-5-yl)-pyrimidin-2-yl}-amine] | – | IC50 (CDK2/cyclin E): 800 nM
25 | C=CCNc1nc(C)c(-c2ccnc(Nc3cccc([N+](=O)[O-])c3)n2)s1 [Compound 91, {4-(2-Allylamino-4-methyl-thiazol-5-yl)-pyrimidin-2-yl}-(3-nitro-phenyl)-amine] | – | IC50 (A549; [2]): 22100 ± 200 nM
26 | CNc1nc(C)c(-c2ccnc(Nc3cccc(O)c3)n2)s1 [Compound 85, 3-{4-(4-Methyl-2-methylamino-thiazol-5-yl)-pyrimidin-2-ylamino}-phenol] | 400 | –
27 | CNc1nc(C)c(-c2ccnc(Nc3cccc(F)c3)n2)s1 [Compound 103, (3-Fluoro-phenyl)-{4-(4-methyl-2-methylamino-thiazol-5-yl)-pyrimidin-2-yl}-amine] | – | IC50 (CDK2/cyclin E): 1200 nM
28 | Cc1nc(-c2ccccc2)sc1-c1ccnc(Nc2ccc(F)c(F)c2)n1 [Compound 59, (3,4-Difluoro-phenyl)-{4-(4-methyl-2-phenyl-thiazol-5-yl)-pyrimidin-2-yl}-amine] | 22000 ± 21000 | –
29 | Cc1nc(C)c(-c2ccnc(NS(=O)(=O)c3cccc([N+](=O)[O-])c3)n2)s1 [Compound 42, N-{4-(2,4-Dimethyl-thiazol-5-yl)-pyrimidin-2-yl}-3-nitro-benzenesulfonamide] | 56000 | –
30 | CNc1nc(C)c(-c2ccnc(Nc3ccc(F)c(F)c3)n2)s1 [Compound 104, (3,4-Difluoro-phenyl)-{4-(4-methyl-2-methylamino-thiazol-5-yl)-pyrimidin-2-yl}-amine] | 4900 ± 2500 | –
31 | CCOC(=O)c1cc(Nc2nccc(-c3sc(C)nc3C)n2)ccc1Cl [Compound 92, 2-Chloro-5-{4-(2,4-dimethyl-thiazol-5-yl)-pyrimidin-2-ylamino}-benzoic acid ethyl ester] | 4400 ± 3000 | –
32 | Clc1ccc(Nc2nccc(-c3cc(Cl)sc3Cl)n2)cc1 [Compound 3, (4-Chloro-phenyl)-{4-(2,5-dichloro-thiophen-3-yl)-pyrimidin-2-yl}-amine] | 5000 ± 4000 | –
33 | Cc1nc(C)c(-c2cc(Br)nc(Nc3cccc([N+](=O)[O-])c3)n2)s1 [Compound 54, {4-Bromo-6-(2,4-dimethyl-thiazol-5-yl)-pyrimidin-2-yl}-(3-nitro-phenyl)-amine] | – | IC50 (CDK2/cyclin E): 10 nM
34 | COc1cc(-c2cc(-c3sc(C)nc3C)nc(Nc3ccc(F)cc3)n2)cc(OC)c1O [Compound 69, 4-{6-(2,4-Dimethyl-thiazol-5-yl)-2-(4-fluoro-phenylamino)-pyrimidin-4-yl}-2,6-dimethoxy-phenol] | 12000 ± 5000 | –
35 | CCOC(=O)c1cccc(Cl)c1Nc1nccc(-c2sc(C)nc2C)n1 [Compound 93, 3-Chloro-2-{4-(2,4-dimethyl-thiazol-5-yl)-pyrimidin-2-ylamino}-benzoic acid ethyl ester] | 1100 ± 1000 | –
36 | Cc1nc(C)c(-c2cc(-c3ccc(C(F)(F)F)cc3)nc(Nc3ccc(Cl)cc3)n2)s1 [Compound 65, (4-Chloro-phenyl)-{4-(2,4-dimethyl-thiazol-5-yl)-6-(4-trifluoromethyl-phenyl)-pyrimidin-2-yl}-amine] | 55000 ± 50000 | –
37 | Cc1nc(C)c(-c2ccnc(Nc3cccc(C(F)(F)F)c3)n2)s1 [Compound 26, {4-(2,4-Dimethyl-thiazol-5-yl)-pyrimidin-2-yl}-(3-trifluoromethyl-phenyl)-amine] | 3300 | –
38 | Cc1cc(-c2ccnc(Nc3ccccc3Cl)n2)c(C)s1 [Compound 15, (2-Chloro-phenyl)-{4-(2,5-dimethyl-thiophen-3-yl)-pyrimidin-2-yl}-amine] | 6000 | –
39 | COc1ccc(Nc2nccc(-c3sc(C)nc3C)n2)c(O)c1 [Compound 95, 2-{4-(2,4-Dimethyl-thiazol-5-yl)-pyrimidin-2-ylamino}-5-methoxy-phenol] | 50 ± 30 | –
40 | Cc1nc(C)c(-c2ccnc(Nc3cccc(O)c3)n2)s1 [Compound 40, 3-{4-(2,4-Dimethyl-thiazol-5-yl)-pyrimidin-2-ylamino}-phenol] | 300 | –
41 | Cc1nc(C)c(-c2ccnc(Nc3ccccc3C(F)(F)F)n2)s1 [Compound 27, {4-(2,4-Dimethyl-thiazol-5-yl)-pyrimidin-2-yl}-(2-trifluoromethyl-phenyl)-amine] | 3800 | –
